pIC50: −log10 of the molar value. Several values for one entry are separate records, joined by “and”; a condition that tells them apart may be missing. Identical values can stand only once.

Experimental findings from PubChem BioAssay AID1963978 (Molecular Pharmacology Branch, DTP, NCI, 2024) are described below.

In the assay the test system is 616215-338-R-J1-PDC spheroids with HUVEC/MSC, viability. In words: Anticancer human tumor 616215-338-R-J1-PDC patient-derived colon adenocarcinoma cell line growth inhibition [PI3K]. Particulars: for viability, T/C: stronger effect = lower value. An excerpt: Combinatorial screen of targeted agents with the PI3K inhibitors inavolisib, alpelisib, duvelisib, and copanlisib in multi-cell type tumor spheroids
A high-throughput screen of multi-cell type tumor spheroids was designed to identify active combinations of targeted small molecules and PI3K pathway inhibitors. Complex spheroids include a stromal component modeled by human endothelial cells (HUVEC) and fibroblasts modeled by human mesenchymal stem cells (MSCs). The concentration ranges selected for each drug and investigational agent were based upon clinically achievable concentrations if the clinical Cmax of the agent was known.
Compounds. The drugs and investigational agents: inavolisib (NSC800729), alpelisib (NSC765974), duvelisib (NSC772469), copanlisib (NSC816437), ipatasertib (NSC767898), afuresertib (NSC778305), talazoparib (NSC767125), sapanisertib (NSC764658), selumetinib (NSC741078), tovorafenib (DAY101, NSC766906), vemurafenib (NSC761431), ravoxertinib (NSC781343), sotorasib (NSC818433), MRTX1133 (NSC 836407), abemaciclib (NSC 768073), palbociclib (NSC758247), venetoclax (NSC 766270), SY5609 (NSC837396), enzalutamide (NSC755605), and darolutamide (NSC825331), were obtained from the National Cancer Institute (NCI) Developmental Therapeutics Program Chemical Repository. The FDA-approved anticancer drug set is available from the NCI Developmental Therapeutics Program. […] The stock solutions were prepared in dimethyl sulfoxide (DMSO, Sigma-Aldrich, St. Louis, MO, cat. D2650) at 800-fold the tested concentration and stored at -70 degrees C prior to their use. All drugs and investigational agents were tested over a range starting from a high concentration at or near the clinical Cmax and decreasing in half-log increments. If the clinical Cmax for an agent had not been determined, the highest concentration tested was 10 microM.
Cell Culture. All cells were maintained in an incubator at 37 degrees C and 5% CO2 with 95% humidity. The PDC lines were cultured according to standard operating procedures established by the NCI PDMR (https://pdmr.cancer.gov/sops/default.htm). All PDCs were thawed and cultured in Matrigel-coated flasks prepared with a working solution of 1X Ham's F-12 nutrient mix, without supplementation (Invitrogen, Waltham, MA, cat. 11765054), 100 U/mL penicillin-streptomycin (Invitrogen, cat. 15140122), and 2.5% Matrigel (Corning Inc., Corning, NY, cat. 354248) for the first three passages. The 354836-022-R-J1-PDC, 475296-252-R-J1-PDC, and 997726-040-R-J2-PDC lines were cultured in 6A media, which includes advanced DMEM/F-12 (Thermo Fisher Scientific, cat. 12634028), 10 mM HEPES (Thermo Fisher Scientific, cat. 15630080), 1X GlutaMAX supplement (Thermo Fisher Scientific, cat. 35050061), 0.1 mg/mL primocin (InvivoGen, San Diego, CA, cat. ant-pm-2), 10% defined fetal bovine serum, heat inactivated (HyClone Laboratories Inc., Logan, UT, cat. SH30070.03HI), 50% L-WRN conditioned media (ATCC, cat. CRL-3276), 1.25 mM N-Acetyl-L-cysteine (Sigma-Aldrich, cat. A9165), 10 mM nicotinamide (Sigma-Aldrich, cat. N0636), 1X B-27 supplement (Thermo Fisher Scientific, cat. 17504044), 1X N-2 supplement (Thermo Fisher Scientific, cat. 17502048), and 10 microM Y-27632 dihydrochloride (Tocris Bioscience, Bristol, United Kingdom, cat. 1254). The 624824-186-R-J2-PDC line was cultured in 6C/Colon 1B media, which includes all 6A media components plus 50 ng/mL human EGF recombinant protein (Thermo Fisher Scientific, cat. PHG0311). […]

Where [1] appears, read: compound alone, run of 05/08/2023.
Where [2] appears, read: compound alone, run of 05/09/2023.
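Note: spheroids exposed to agents for seven days before the viability read.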

As usually defined, the viability, T/C is the ratio of treated to control. Usually pIC50 stands for −log10 of the IC50, conventionally taken in molar units. Turning to `CC(=O)c1c(C)c2cnc(Nc3ccc(N4CCNCC4)cn3)nc2n(C2CCCC2)c1=O`, the viability, T/C by setting is: (compound 0.000316 µM) 96.5% [middle of 4 runs]; (compound 0.001 µM) 98.8% [middle of 4 runs]; (compound 0.00316 µM) 98.5% [middle of 4 runs]; (compound 0.01 µM) 112% [middle of 4 runs]; (compound 0.0316 µM) 97.5% [middle of 4 runs]; (compound 0.1 µM) 115% [middle of 4 runs]. The pIC50 (curve of compound) is below 7.00.
The IC50 is the concentration needed to halve the response being measured. For the molecule `CC(C)NCC(C(=O)N1CCN(c2ncnc3c2C(C)CC3O)CC1)c1ccc(Cl)cc1` (stereo not drawn), the viability, T/C (compound 0.0316 µM) was 98.8% [middle of 4 runs]; the viability, T/C (compound 0.1 µM) is 94.3% [middle of 4 runs]; the viability, T/C (compound 0.316 µM) is 95.1% [middle of 4 runs]; the viability, T/C (compound 1 µM) is 102% [middle of 4 runs]; the viability, T/C (compound 3.16 µM) is 77.5% [middle of 4 runs]. Also, the IC50 (curve of compound) was 6.53 µM [middle of 4 runs].
With `CC(C)n1nc(-c2ccc3oc(N)nc3c2)c2c(N)ncnc21`, the viability, T/C reads like this: (compound 0.000316 µM) 95.1% [middle of 4 runs]; (compound 0.001 µM) 95.7% [middle of 4 runs]; (compound 0.00316 µM) 100% [middle of 4 runs]; (compound 0.01 µM) 107% [middle of 4 runs]; (compound 0.0316 µM) 121% [middle of 4 runs]; (compound 0.1 µM) 94.5% [middle of 4 runs]. Also, the pIC50 (curve of compound) was below 7.00.
Regarding `CC(Cn1ccc(-c2ccc(C#N)c(Cl)c2)n1)NC(=O)c1cc(C(C)O)[nH]n1` (stereo not drawn), the viability, T/C is, setting by setting: (compound 0.0316 µM) 99.3% [middle of 4 runs]; (compound 0.316 µM) 97.2% [middle of 4 runs]; (compound 1 µM) 101% [middle of 4 runs]; (compound 10 µM) 101% [middle of 4 runs]. In addition, the pIC50 (curve of compound) is below 5.00.
Turning to `CC(Nc1ccc2c(c1)OCCn1cc(N3C(=O)OCC3C(F)F)nc1-2)C(N)=O` (stereo not drawn), the viability, T/C (compound 0.00316 µM) was 94.5% [middle of 8 runs]; the viability, T/C (compound 0.01 µM) is 96.4% [middle of 8 runs]; the viability, T/C (compound 0.0316 µM) is 100% [middle of 8 runs]; the viability, T/C (compound 0.1 µM) was 97.1% [middle of 8 runs]; the viability, T/C (compound 0.316 µM) is 98.8% [middle of 8 runs]; the viability, T/C (compound 1 µM) is 105% [middle of 8 runs]. Moreover, the pIC50 under setting [1] was below 6.00.
`CC(Nc1ncnc2nc[nH]c12)c1cc2cccc(Cl)c2c(=O)n1-c1ccccc1` (stereo not drawn): the viability, T/C is 103% [middle of 8 runs] (compound 0.0316 µM); 96.5% [middle of 8 runs] (compound 0.1 µM); 99.3% [middle of 8 runs] (compound 0.316 µM); 105% [middle of 8 runs] (compound 1 µM); 102% [middle of 8 runs] (compound 3.16 µM); 105% [middle of 8 runs] (compound 10 µM). Also, the negative-log IC50 (pIC50) under setting [2] was below 5.00.
Take `CCCS(=O)(=O)Nc1ccc(F)c(C(=O)c2c[nH]c3ncc(-c4ccc(Cl)cc4)cc23)c1F`: the viability, T/C runs as follows: (compound 0.0316 µM) 95.5% [middle of 4 runs]; (compound 0.1 µM) 93.5% [middle of 4 runs]; (compound 0.316 µM) 97.2% [middle of 4 runs]; (compound 1 µM) 92.5% [middle of 4 runs]; (compound 10 µM) 2.66% [middle of 4 runs]. The pIC50 (curve of compound) was 5.36 and 5.41 and 5.29.
On to `CCN1CCN(Cc2ccc(Nc3ncc(F)c(-c4cc(F)c5nc(C)n(C(C)C)c5c4)n3)nc2)CC1`, for which the viability, T/C was 98.2% [middle of 4 runs] (compound 0.00316 µM); 92.2% [middle of 4 runs] (compound 0.01 µM); 97.4% [middle of 4 runs] (compound 0.0316 µM); 114% and 104% (2×) and 116% (compound 0.1 µM). For the same molecule, the pIC50 (curve of compound) is below 6.00.
In the case of `CNC(=O)c1ccc(N2C(=S)N(c3ccc(C#N)c(C(F)(F)F)c3)C(=O)C2(C)C)cc1F`, the viability, T/C (compound 0.0316 µM) was 100% [middle of 4 runs]; the viability, T/C (compound 0.1 µM) is 102% [middle of 4 runs]; the viability, T/C (compound 0.316 µM) was 100% [middle of 4 runs]; the viability, T/C (compound 1 µM) was 93.9% and 100% and 102%; the viability, T/C (compound 3.16 µM) was 101% [middle of 4 runs]; the viability, T/C (compound 10 µM) was 104% [middle of 4 runs]. Further, the pIC50 (curve of compound) was below 5.00.
With `COc1c(OCCCN2CCOCC2)ccc2c3n(c(=NC(=O)c4cnc(N)nc4)nc12)CCN3`, the viability, T/C is, setting by setting: (compound 0.00316 µM) 93.2% [middle of 8 runs]; (compound 0.01 µM) 96.5% [middle of 8 runs]; (compound 0.0316 µM) 96.2% [middle of 8 runs]; (compound 0.1 µM) 91.2% [middle of 8 runs]; (compound 0.316 µM) 45% [middle of 8 runs]; (compound 1 µM) 26.3% [middle of 8 runs]. The IC50 under setting [2] was 279 nM [middle of 7 runs].
Take `C[C@@H](NC(=O)c1ncnc(N)c1Cl)c1ncc(C(=O)Nc2cc(C(F)(F)F)c(Cl)cn2)s1`: the viability, T/C reads like this: (compound 0.0316 µM) 103% [middle of 4 runs]; (compound 0.1 µM) 92.3% [middle of 4 runs]; (compound 0.316 µM) 112% [middle of 4 runs]; (compound 1 µM) 106% [middle of 4 runs]; (compound 3.16 µM) 109% [middle of 4 runs]; (compound 10 µM) 86.8% [middle of 4 runs]. In addition, the pIC50 (curve of compound) is below 5.00.
`Cc1nc(NC(=O)N2CCCC2C(N)=O)sc1-c1ccnc(C(C)(C)C(F)(F)F)c1` (stereo not drawn): the viability, T/C (compound 0.0316 µM) was 97.3% [middle of 8 runs]; the viability, T/C (compound 0.1 µM) is 102% [middle of 8 runs]; the viability, T/C (compound 0.316 µM) was 106% [middle of 8 runs]; the viability, T/C (compound 1 µM) is 108% [middle of 8 runs]; the viability, T/C (compound 3.16 µM) is 100% [middle of 8 runs]; the viability, T/C (compound 10 µM) is 99.5% [middle of 8 runs]. Also, the pIC50 under setting [1] was below 5.00.
As for `Cn1cnc2c(F)c(Nc3ccc(Br)cc3Cl)c(C(=O)NOCCO)cc21`, the viability, T/C was 96.1% [middle of 4 runs] (compound 0.00949 µM); 94.7% [middle of 4 runs] (compound 0.03 µM); 92.1% [middle of 4 runs] (compound 0.0949 µM); 80.6% [middle of 4 runs] (compound 0.3 µM); 58.5% [middle of 4 runs] (compound 0.949 µM); 45.3% [middle of 4 runs] (compound 3 µM).
For the molecule `Cn1nccc1Nc1nccc(-c2ccn(C(CO)c3ccc(Cl)c(F)c3)c(=O)c2)n1` (stereo not drawn), the viability, T/C (compound 0.0316 µM) is 96.3% [middle of 4 runs]; the viability, T/C (compound 0.1 µM) is 101% [middle of 4 runs]; the viability, T/C (compound 0.316 µM) is 90.4% [middle of 4 runs]; the viability, T/C (compound 1 µM) was 66.4% [middle of 4 runs]; the viability, T/C (compound 3.16 µM) is 56.4% [middle of 4 runs]; the viability, T/C (compound 10 µM) is 40.1% [middle of 4 runs]. Besides, the IC50 (curve of compound) is 3.91 µM [middle of 4 runs].
On to `Cn1ncnc1[C@H]1c2n[nH]c(=O)c3cc(F)cc(c23)N[C@@H]1c1ccc(F)cc1`, for which the viability, T/C by setting is: (compound 0.000316 µM) 95% [middle of 4 runs]; (compound 0.001 µM) 97.2% [middle of 4 runs]; (compound 0.00316 µM) 100% [middle of 4 runs]; (compound 0.01 µM) 102% [middle of 4 runs]; (compound 0.0316 µM) 102% [middle of 4 runs]; (compound 0.1 µM) 94.5% [middle of 4 runs]. Moreover, the negative logarithm of the IC50 (pIC50) (curve of compound) is below 7.00.
